Results reported in patent US20250230140A1 (Viva Star Biosciences (Suzhou) Co., Ltd., priority 2021, published 2025).

Target: T1, LPA1 (Homo sapiens, UniProt Q92633)
T1 construct: ProLink (β-galactosidase enzyme-donor fragment); host or cells: CHO-K1 (PathHunter EDG2 β-Arrestin cell line)
Assay: LPA1 calcium flux assay (LPA1 functional antagonist assay)
Type: cell-based
Conditions: PathHunter CHO-K1 EDG2 β-Arrestin cells, calcium indicator dye, stimulated with EC80 concentration of LPA, FLIPR
Description: The effectiveness of compounds of the present invention as LPA1 inhibitors can be determined in an LPA1 functional antagonist assay as follows.
PathHunter® CHO-K1 EDG2 β-Arrestin Cell Line (Eurofins DiscoverX Corporation, Cat #93-0644C2) were plated overnight (11,500 cells/well) in poly-D-lysine coated 384-well microplates (Corning, Cat #356697) in AssayComplete™ Cell Plating 35 Reagent (Eurofins DiscoverX Corporation, Cat #93-0563R35). Following overnight culture, cells were loaded with calcium indicator dye from the HitHunter Calcium No WashPLUS Assay kit (Eurofins DiscoverX Corporation, Cat #93-0091) for 45 minutes at 37° C. Test compounds solubilized in DMSO (Sigma, Cat #276855) on 384-well polypropylene microplates (Greiner bio-one, Cat #781280) were then diluted to intermediate concentration with assay buffer [1×HBSS calcium/magnesium (Corning, Cat #21-023-CM) and 20 mM HEPES (Corning, Cat #25-060-Cl)] before addition to cells by Agilent Velocity 11 with a final concentration of 0.4% DMSO. After compound addition, assay plates were equilibrated to room temperature for 30 minutes. Cells were then stimulated by addition of EC80 concentration of LPA (Cat #, 10010093) in assay buffer containing [1×HBSS calcium/magnesium (Corning, Cat #21-023-CM), 20 mM HEPES (Corning, Cat #25-060-Cl), and 0.1% BSA (Sigma, Cat #A8806)] using Molecular Devices FLIPR Tetra PLUS®. IC50 values were determined by Chemical and Biological Information System from ChemInnovation Software, Inc.
The compounds of this invention were tested for their activity to inhibit LPA1 as determined in an LPA1 functional antagonist assay as described herein.

T1 sequence (Q92633 whole entry, the tested form may be a part): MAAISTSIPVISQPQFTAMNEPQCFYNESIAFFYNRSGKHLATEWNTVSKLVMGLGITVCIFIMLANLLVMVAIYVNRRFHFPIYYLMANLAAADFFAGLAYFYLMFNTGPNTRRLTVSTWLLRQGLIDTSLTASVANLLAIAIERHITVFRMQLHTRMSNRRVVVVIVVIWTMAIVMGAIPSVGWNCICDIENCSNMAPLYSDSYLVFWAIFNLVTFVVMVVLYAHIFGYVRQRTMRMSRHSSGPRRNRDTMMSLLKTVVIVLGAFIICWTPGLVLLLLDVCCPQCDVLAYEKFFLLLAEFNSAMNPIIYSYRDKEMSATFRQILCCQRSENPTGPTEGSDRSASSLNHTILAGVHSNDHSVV

Row | Structure (SMILES) | IC50 [nM]
1 | CCc1nc(-c2nnn(C)c2COc2nccc(C3CCC3)n2)ccc1N1CC[C@@H]([C@H](C)C(=O)O)C1 [Example 10] | < 100
2 | CCc1nc(-c2nnn(C)c2COc2nccc(C3CCC3)n2)ccc1N1CC[C@H]([C@H](C)C(=O)O)C1 [Example 11] | < 100
3 | CCCc1ccc(=O)n(Cc2c(-c3ccc(N4CC[C@@H]([C@@H](C)C(=O)O)C4)c(CC)n3)nnn2C)c1 [Example 12, (R)-2-((S)-1-(2-ethyl-6-(1-methyl-5-((2-oxo-5-propylpyridin-1(2H)-yl)methyl)-1H-1,2,3-triazol-4-yl)pyridin-3-yl)pyrrolidin-3-yl)propanoic acid] | 500 to 5000
4 | CCCc1ccc(=O)n(Cc2c(-c3ccc(N4CC[C@@H]([C@H](C)C(=O)O)C4)c(CC)n3)nnn2C)c1 [Example 13, (S)-2-((S)-1-(2-ethyl-6-(1-methyl-5-((2-oxo-5-propylpyridin-1(2H)-yl)methyl)-1H-1,2,3-triazol-4-yl)pyridin-3-yl)pyrrolidin-3-yl)propanoic acid] | 100 to 500
5 | CCCc1ccc(=O)n(Cc2c(-c3ccc(N4CC[C@@H](C(C)(C)C(=O)O)C4)c(CC)n3)nnn2C)c1 [Example 14] | < 100
6 | CCCc1ccc(=O)n(Cc2c(-c3ccc(N4CC[C@@H](C(C)(C)C(=O)O)C4)c(C)n3)nnn2C)c1 [Example 15, (S)-2-methyl-2-(1-(2-methyl-6-(1-methyl-5-((2-oxo-5-propylpyridin-1(2H)-yl)methyl)-1H-1,2,3-triazol-4-yl)pyridin-3-yl)pyrrolidin-3-yl)propanoic acid] | < 100
7 | CCCc1ccc(=O)n(Cc2c(-c3ccc(N4CC[C@H](C(C)(C)C(=O)O)C4)c(CC)n3)nnn2C)c1 [Example 16, (R)-2-(1-(2-ethyl-6-(1-methyl-5-((2-oxo-5-propylpyridin-1(2H)-yl)methyl)-1H-1,2,3-triazol-4-yl)pyridin-3-yl)pyrrolidin-3-yl)-2-methylpropanoic acid] | 500 to 5000
8 | Cc1nc(-c2nnn(C)c2COc2nccc(C3CCC3)n2)ccc1C1CC(CC(=O)O)CCO1 (centres unmarked) [Example 26, 2-(2-(6-(5-(((4-cyclobutylpyrimidin-2-yl)oxy)methyl)-1-methyl-11H-1,2,3-triazol-4-yl)-2-methylpyridin-3-yl)tetrahydro-2H-pyran-4-yl)acetic acid] | 100 to 500
9 | CCCc1ccc(=O)n(Cc2c(-c3ccc(C4CC(CC(=O)O)CCO4)c(C)n3)nnn2C)c1 (centres unmarked) [Example 27, 2-[2-(2-methyl-6-{1-methyl-5-[(2-oxo-5-propyl-1,2-dihydropyridin-1-yl)methyl]-1H-1,2,3-triazol-4-yl}pyridin-3-yl)oxan-4-yl]acetic acid] | 500 to 5000
10 | Cc1nc(-c2nnn(C)c2COc2nccc(C3CCC3)n2)ccc1C1COCC(CC(=O)O)C1 (centres unmarked) [Example 28, 2-{5-[6-(5-{[(4-cyclobutylpyrimidin-2-yl)oxy]methyl}-1-methyl-1H-1,2,3-triazol-4-yl)-2-methylpyridin-3-yl]oxan-3-yl}acetic acid] | 100 to 500
11 | CCCc1ccc(=O)n(Cc2c(-c3ccc(C4COCC(CC(=O)O)C4)c(C)n3)nnn2C)c1 (centres unmarked) [Example 29] | 500 to 5000
12 | CCCN(C)C(=O)OCc1c(-c2ccc(C3CCOC(CC(=O)O)C3)c(CC)n2)nnn1C (centres unmarked) [Example 30, 2-(4-{2-ethyl-6-[1-methyl-5-({[methyl(propyl)carbamoyl]oxy}methyl)-1H-1,2,3-triazol-4-yl]pyridin-3-yl}oxan-2-yl)acetic acid] | 500 to 5000
13 | CCCc1ccc(=O)n(Cc2c(-c3ccc(C4CCOC(CC(=O)O)C4)c(CC)n3)nnn2C)c1 (centres unmarked) [Example 31, 2-(4-(2-ethyl-6-(1-methyl-5-((2-oxo-5-propylpyridin-1(2H)-yl)methyl)-1H-1,2,3-triazol-4-yl)pyridin-3-yl)tetrahydro-2H-pyran-2-yl)acetic acid] | 500 to 5000
14 | CCc1nc(-c2nnn(C)c2COc2nccc(C3CCC3)n2)ccc1C1CCOC(CC(=O)O)C1 (centres unmarked) [Example 32, 2-(4-(6-(5-(((4-cyclobutylpyrimidin-2-yl)oxy)methyl)-1-methyl-1H-1,2,3-triazol-4-yl)-2-ethylpyridin-3-yl)tetrahydro-2H-pyran-2-yl)acetic acid] | < 100
